{"source": "paper PMC6934184", "about": "“Selective DNA-PKcs inhibition extends the therapeutic index of localized radiotherapy and chemotherapy” (The Journal of Clinical Investigation, 2019)", "target": "T1, SRC N1 (Homo sapiens, UniProt P12931)", "T1 construct": "purchased Thermo Fisher Scientific (Life Technologies) SelectScreen", "T1 sequence (P12931 1-542 isoform P12931-2)": "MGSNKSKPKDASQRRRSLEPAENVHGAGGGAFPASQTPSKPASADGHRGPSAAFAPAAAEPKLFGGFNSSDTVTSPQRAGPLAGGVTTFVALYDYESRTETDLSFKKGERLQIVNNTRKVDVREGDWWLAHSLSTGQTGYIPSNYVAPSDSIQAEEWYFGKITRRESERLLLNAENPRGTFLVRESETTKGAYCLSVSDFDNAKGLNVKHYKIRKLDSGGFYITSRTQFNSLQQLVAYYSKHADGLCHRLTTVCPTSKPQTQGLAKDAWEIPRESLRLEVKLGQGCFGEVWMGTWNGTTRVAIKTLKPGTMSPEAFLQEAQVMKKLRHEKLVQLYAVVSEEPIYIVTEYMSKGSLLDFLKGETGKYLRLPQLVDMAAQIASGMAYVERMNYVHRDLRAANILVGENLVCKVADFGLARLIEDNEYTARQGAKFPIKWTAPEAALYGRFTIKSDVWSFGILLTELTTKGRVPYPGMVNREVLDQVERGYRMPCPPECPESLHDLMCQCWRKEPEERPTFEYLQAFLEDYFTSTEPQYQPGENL", "assay": "SelectScreen Z'LYTE", "assay_type": "biochemical", "summary_of_the_method": "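SelectScreen broad panel; activity (Z'LYTE, Adapta) plus binding formats. ATP: Km app for CSF1R Z'LYTE; 10 for CAMK1 Adapta. Readout = % per kinase.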"}
{"smiles": "CN(C(=O)CN1CCOCC1)c1ccc2sc3c(-c4cccc5c(=O)cc(N6CC7CCC(C6)O7)oc45)cccc3c2c1", "note": "[NU5455]", "values": [{"measurement": "inhibition at 1 µM", "value": 3.9, "unit": "%"}]}
